We go through two compounds from article PMC3523701 (Journal of the American Chemical Society, 2012).

The experiment deals with SRC. Format: binding. Particulars: competitor against photo-probe labeling, Figure S1.

For `Cc1ccc(C(=O)Nc2ccc(CN3CCN(C)CC3)c(C(F)(F)F)c2)cc1C#Cc1cnc2cccnn12` [Ponatinib, reference compound], the “competition of active site labeling of SRC” value is listed as “able to block active site labeling”.
Next, `CNC(=O)c1cc(Oc2ccc(NC(=O)Nc3cc(C(C)(C)C)nn3-c3ccc4ncccc4c3)c(F)c2)ccn1` [Rebastinib, reference compound]: “able to block active site labeling”.
